# According to patent US11213499B1, “Use of 3,3′-diselenodipropionic acid (DSePA) as an anticancer agent” (Secretary, Department of Atomic Energy, priority 2020, dated 2022):
# Tested on: Vero (Monkey kidney transformed epithelial cell line (normal))
# Assay: SRB/MTT assay, normal Vero cells
# Assay type: cell-based
# Procedure: The anticancer effect of DSePA was evaluated using a panel of twenty-five human cancer cell lines of different tissue origins. Cells were treated with the increasing concentrations (0.1-100 μM) of DSePA for 48 h and viability was monitored by (Sulforhodamine B) SRB assay or MTT assay.
# Cell culture and DSePA synthesis—DSePA was synthesized and characterized as described in our previous reports. Cell lines were cultured in growth medium (DMEM/RPMI) supplemented with 10% FBS, 100 U/ml penicillin and 100 μg/ml streptomycin at 37° C. in a humidified 5% CO2 environment. The stock solution of DSePA was prepared fresh in cell culture medium and diluted with the same to achieve the desired concentrations.
# SRB/MTT Assay—To evaluate the anti-proliferative effect of DSePA, Cells (˜5×10^3) suspended in 100 μl of complete culture medium were seeded in each well of 96 well plates. The cells were allowed to attach and grow for 24 h, treated with desired concentrations of DSePA dissolved in culture medium for 48 h and then processed for SRB/MTT assay as described in literature. The percentage (%) cytotoxicity was calculated from the decrease in absorbance as compared to that of control group.
compound,measurement,setting,value
"O=C(O)CC[Se][Se]CCC(=O)O [DSePA, 3,3′-diselenodipropionic acid]",GI50,"Primates, Vero normal cells, 48 hours treatment, SRB/MTT assay, read-out: GI50 (Concentration of drug causing 50% inhibition of cell growth)",> 100 µM
same,toxicity in normal cell types,"Vero, 0.1-100 μM, 48 h",did not show toxicity
